Target: USP1, construct USP1 (I-785, GG670, 671AA)/UAF1 (I-677)-Flag (Homo sapiens (Human), UniProt O94782, G670A/G671A)
Assay: Ubiquitin-Rhodamine 110 assay for USP1 activity, follow-up IC50 format
Type: biochemical

Chain of USP1, construct USP1 (I-785, GG670, 671AA)/UAF1 (I-677)-Flag (O94782 whole entry G670A/G671A): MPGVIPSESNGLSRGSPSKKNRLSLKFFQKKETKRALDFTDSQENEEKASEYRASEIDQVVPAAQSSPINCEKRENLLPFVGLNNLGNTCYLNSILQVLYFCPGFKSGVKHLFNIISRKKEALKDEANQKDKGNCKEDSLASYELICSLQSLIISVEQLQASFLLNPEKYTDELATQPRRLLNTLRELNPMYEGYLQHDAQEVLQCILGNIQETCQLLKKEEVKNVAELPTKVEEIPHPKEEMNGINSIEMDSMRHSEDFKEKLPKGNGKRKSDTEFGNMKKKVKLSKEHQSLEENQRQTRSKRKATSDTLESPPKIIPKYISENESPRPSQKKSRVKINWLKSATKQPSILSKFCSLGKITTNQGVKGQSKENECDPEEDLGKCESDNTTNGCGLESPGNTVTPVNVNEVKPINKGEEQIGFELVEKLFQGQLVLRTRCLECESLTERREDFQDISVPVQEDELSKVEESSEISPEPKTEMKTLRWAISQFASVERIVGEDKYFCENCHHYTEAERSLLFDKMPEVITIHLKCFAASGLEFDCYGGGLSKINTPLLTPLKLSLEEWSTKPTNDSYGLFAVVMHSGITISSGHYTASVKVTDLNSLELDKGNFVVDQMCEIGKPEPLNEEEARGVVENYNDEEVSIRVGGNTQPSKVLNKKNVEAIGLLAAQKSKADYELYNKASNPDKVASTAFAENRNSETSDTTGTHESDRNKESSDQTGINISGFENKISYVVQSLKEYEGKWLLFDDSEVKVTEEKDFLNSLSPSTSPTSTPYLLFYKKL
Chain of USP1, construct USP1 (I-785, GG670, 671AA)/UAF1 (I-677)-Flag (Q8TAF3 whole entry partner): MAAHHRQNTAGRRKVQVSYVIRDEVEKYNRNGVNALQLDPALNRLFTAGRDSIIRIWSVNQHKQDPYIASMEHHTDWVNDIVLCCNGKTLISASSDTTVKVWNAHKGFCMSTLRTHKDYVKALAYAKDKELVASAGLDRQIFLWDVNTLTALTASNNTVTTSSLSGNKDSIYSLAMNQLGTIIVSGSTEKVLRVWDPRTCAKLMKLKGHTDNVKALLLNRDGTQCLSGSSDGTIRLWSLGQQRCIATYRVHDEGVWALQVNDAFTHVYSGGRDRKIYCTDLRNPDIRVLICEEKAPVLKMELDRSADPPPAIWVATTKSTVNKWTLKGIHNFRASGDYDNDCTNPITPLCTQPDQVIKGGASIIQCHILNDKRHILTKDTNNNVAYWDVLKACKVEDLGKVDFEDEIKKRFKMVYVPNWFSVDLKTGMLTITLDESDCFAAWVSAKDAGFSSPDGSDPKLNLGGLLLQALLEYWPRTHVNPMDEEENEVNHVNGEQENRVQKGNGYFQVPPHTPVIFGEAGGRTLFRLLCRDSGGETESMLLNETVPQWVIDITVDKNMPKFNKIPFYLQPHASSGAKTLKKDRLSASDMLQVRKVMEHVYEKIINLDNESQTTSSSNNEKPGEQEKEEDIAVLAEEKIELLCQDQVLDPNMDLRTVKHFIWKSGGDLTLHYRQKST

Substance: 9-(4-(1H-pyrazol-1-yl)benzyl)-2-(2-cyclopropylphenyl)-7,9- [Compound I-94]
- IC50: < 50 nM

From patent US11161848B2, “Purinones as ubiquitin-specific protease 1 inhibitors” (FORMA Therapeutics, Inc., priority 2015, dated 2021)
